Results taken from the NIST ThermoML archive (doi:10.1021/acs.jced.9b00306).
Numbers after ± are expanded uncertainties. Blank lines part the entries; values can stand above or below the compound they belong to.

Settings: Liquid, Ebulliometric method (Recirculating still)

- vapor or sublimation pressure (456.93 K): 10 ± 1 kPa
- vapor or sublimation pressure (474.79 K): 20 ± 1 kPa
- vapor or sublimation pressure (525.1 K): 99 ± 1 kPa
Compound: OCCCCCCO [1,6-hexanediol]

- vapor or sublimation pressure (424.91 K): 7.79 ± 0.51 kPa
- vapor or sublimation pressure (431.2 K): 10 ± 1 kPa
- vapor or sublimation pressure (441.21 K): 14.56 ± 0.52 kPa
- vapor or sublimation pressure (450.08 K): 20 ± 1 kPa
- vapor or sublimation pressure (460.47 K): 28.55 ± 0.59 kPa
- vapor or sublimation pressure (474.33 K): 44.63 ± 0.63 kPa
- vapor or sublimation pressure (480.72 K): 54.37 ± 0.72 kPa
- vapor or sublimation pressure (488.62 K): 68.77 ± 0.79 kPa
- vapor or sublimation pressure (496.14 K): 85.45 ± 0.89 kPa
- vapor or sublimation pressure (501 K): 99 ± 1 kPa
- vapor or sublimation pressure (504.86 K): 108.77 ± 1 kPa
- vapor or sublimation pressure (512 K): 131.95 ± 1.2 kPa
- vapor or sublimation pressure (518.78 K): 157.68 ± 1.3 kPa
- vapor or sublimation pressure (523.92 K): 179.21 ± 1.5 kPa
- vapor or sublimation pressure (531.44 K): 216.3 ± 1.6 kPa
Compound: COC(=O)CCCCC(=O)OC [dimethyl 1,6-hexanedioate]

- vapor or sublimation pressure (337.69 K): 101.3 ± 1.6 kPa
Compound: CO [methanol]

- vapor or sublimation pressure (373.15 K): 101.3 ± 1.6 kPa
Compound: O [water]
